Literature values in patent US20130190270A1, “Method for Improving Vein Performance in Bypass Surgery” (priority 2012, published 2013).
Like-named read-outs stand apart in the source and are kept apart here.

Legend:
[1] = tested on: atherosclerosis; settings: guinea pigs
[2] = tested on: atherosclerosis; settings: humans
[3] = tested on: atherosclerosis; settings: mice
[4] = tested on: circulating sPLA2-IIA; settings: patients who underwent CABG

Row | Molecule | effect on atherosclerosis [1] | effect on atherosclerosis [2] | effect on atherosclerosis [3] | effect on circulating sPLA2-IIA levels [4]
1 | CCc1c(C(=O)C(N)=O)c2c(OCC(=O)O)cccc2n1Cc1ccccc1 | can reduce atherosclerosis | can reduce atherosclerosis | can reduce atherosclerosis | –
2 | heparin | – | – | – | induce increased circulating sPLA2-IIA levels
